Literature values in patent US20240082176A1 (Productos Farmaceuticos, S.A. DE C.V., priority 2017, published 2024).
Each block holds one compound with its values, some of them ahead of it.

Experiments:
[1] = in vivo
[2] = in vivo; remark: listed apart in the source
[3] = test system: citric acid-induced cough

- renal clearance as share of total clearance [1]: 8%
- terminal elimination half-life [1]: 10 h
Compound: Nc1c(Br)cc(Br)cc1CN[C@H]1CC[C@H](O)CC1 [ambroxol, trans-4-[(2-amino-3,5-dibromophenyl)methylamino] cyclohexane-1-ol]

- oral bioavailability (estimated): greater than 75%
- half-life t1/2 (in vivo): 2 h
- plasma protein binding (plasma protein): 11-14%
Compound: OC[C@@H](O)CN1CCN(c2ccccc2)CC1 [levodropropizine]

- elimination half-life [2]: 4 h
Compound: OCC(O)CN1CCN(c2ccccc2)CC1 (racemic) [dropropizine, (R, S)-3-(4-phenylpiperazin-1-yl) propane-1,2-diol]
- time after administration at which cough suppression is reached ([3]; after the administration of the drug): 1 h
- period for which the antitussive effect persists ([3]; human, in vivo): 6 h
- antitussive activity compared with codeine (cough; vs codeine): comparable
- antitussive activity compared with its levo enantiomer (cough; vs levodropropizine): comparable
